Measurements reported in paper PMC8296708, “The pan HDAC inhibitor Givinostat improves muscle function and histological parameters in two Duchenne muscular dystrophy murine models expressing different haplotypes of the LTBP4 gene” (Skeletal Muscle, 2021).

What was measured:
Assay type in all cases: in vivo, mouse (C57BL/10ScSn-Dmd^mdx/J)
[1] = Body weight of mdx mice
Description: In the efficacy studies, Givinostat powder (ITF2357) was suspended in 0.5% methylcellulose (Sigma-Aldrich) and administered p.o. (by gavage) at the doses of 0.1, 0.3, 1, 5, 10, 25, and 37.5 mg/kg qdx5x15weeks (administration volume per mouse: 10 mL/kg) in mdx mice (see Additional Figure 1A). Vehicle-treated mdx mice received 0.5% methylcellulose suspension. Givinostat suspension was stored at + 4 °C, and it was freshly prepared every 7 days. Probably due to the impairment of their tongue and masticatory muscles, the oral gavage procedure turned out to be difficult to perform, and chronic treatment of D2.B10 mice by this route was considered to bear a high risk of damaging the esophagus. For this reason, Givinostat was administered in the drinking water. […] Water consumption was weekly monitored throughout the entire duration of the study weighing the bottle of each cage (maximum 4 mice per cage). […] All mice were monitored daily and tolerability was evaluated on the basis of BW and clinical signs.
In both efficacy studies, the effectiveness of treatments was evaluated every week by measuring the forelimb strength by a grip strength meter (Ugo Basile SRL, Italy). BW of mdx (see Additional Figure 2) and D2.B10 mice (see Additional Figure 3) was also measured in order to normalize the absolute grip strength of each mouse with respect to its BW. […]

[2] = tested on: mdx mice; assay: Myofiber cross-sectional area (CSA) in mdx mice
Text: (§1) Tibialis anterior (TA), gastrocnemius (GAS), DIA, and heart were collected from mice maintained under isoflurane anesthesia and sacrificed by cervical dislocation. These muscles were collected from C57BL/10J wt and mdx (5 mice/group) at the end of treatments and from DBA/2J wt and D2.B10 mice (5 mice/group) at two different time points to be examined by a pathologist (for more details see Additional Table 1). Due to the results obtained by the functional tests, muscles from only some treatment groups were analyzed in both DMD models (see Additional Table 1). All the collected muscles were fixed in 10% buffered formalin solution (Bio-optica, Milan, Italy) at + 4 °C for at least 48 h. After fixation, muscular samples were transversely trimmed, caged, and paraffin embedded overnight with an Automated Vacuum Tissue Processor Floor (ETP, Histo-Line Laboratories) and included in paraffin blocks. Serial transverse cross-sections (4 μm thick) were cut with a microtome (Leica RM 2255), collected onto uncoated glass slides, and stained using a standard protocol for hematoxylin and eosin (Mayer hematoxylin & Aqueous G Eosin 1%, Bio-Optica) and Sirius Red staining (Direct Red 80, Sigma-Aldrich). For the image analysis and quantitation, hematoxylin and eosin- and Sirius Red-stained slides were examined with an Olympus BX51 light microscope. From each sample, 1 to 3 random microphotographs at the magnification of × 4 and × 10 (TA, GAS and heart) or × 20 (DIA) were collected using Image-Pro Plus system. The digital images were processed by a pathologist using ImageJ software (U.S. National Institutes of Health, Bethesda, MD, USA). To quantify CSA and centralized nuclei (%) on hematoxylin and eosin-stained sections, one hundred myofibers were manually measured for each muscle/mouse using a tablet pen (Wacom Intruos) and analyzed by the ImageJ software after a linear calibration of 150 μm. The fibrotic area, corresponding to the area stained in red, was compared to the total area of the tissue section, and the results were expressed as percentage fibrosis. The % of fibrosis of muscles in the different treatment groups was expressed by averaging the three values obtained from each muscle.
The deciles of the CSA of the animals treated with Givinostat at the different doses were plotted against the corresponding deciles of the vehicle-treated mice and a linear regression analysis was performed on natural [CSAtreated = b CSAcontrol + a] and log_transformed data [log(CSAtreated) = log(a) + b log(CSAcontrol)]. […] In case of untransformed data, this means that the effect of Givinostat treatment is additive and any decile of the CSAtreatment distribution may be derived from the control data summing up a constant quantity (S) to each fiber AREA of the control group (CSAtreated = CSAcontrol + S). In case of log_transformed data, the effect of Givinostat has to be considered as a multiplicative factor on any generic fiber of the muscle under evaluation, whose size, after the treatment, results K times larger in comparison to the control group value (CSAtreated […] = K × CSAcontrol, with K = 10^a). The S or K parameter values were then determined through an iterative estimation procedure, based on sum of squares (SSQ) minimization, directly comparing the CSA distribution observed in treated animals with that obtained summing up the S value or multiplying by K the CSA values of the control group.

[3] = tested on: mdx mice; assay: Muscle fibrosis by Sirius Red staining in mdx mice
Text: as §1

CCN(CC)Cc1ccc2cc(COC(=O)Nc3ccc(C(=O)NO)cc3)ccc2c1 [Givinostat]
Body weight ([1]; 25 mg/kg, day 105 (vehicle 37.2 ± 0.8, p < 0.01)): 32.9 ± 0.9 g | Body weight ([1]; 37.5 mg/kg, day 105 (vehicle 37.2 ± 0.8, p < 0.05)): 33.1 ± 0.9 g | DIA fiber CSA, peak value ([2]; 37.5 mg/kg (same as vehicle)): 550 μm^2 | GAS fiber CSA, peak of distribution ([2]; 37.5 mg/kg, after 105 days (vehicle peak 500)): 1100 μm^2 | K, multiplicative factor on GAS fiber CSA vs vehicle ([2]; 37.5 mg/kg, multiplicative model): 1.72 | TA fiber CSA, peak value ([2]; 10 and 37.5 mg/kg (vehicle 700)): 900 μm^2 | S, shift effect parameter on TA CSA vs vehicle ([2]; additive model): 140 μm^2 | Reduction of fibrosis in GAS ([3]; 10 and 37.5 mg/kg, T16, vs vehicle): about 30% | Effect on fibrosis in TA ([3]; T16, doses 1, 10, 37.5 mg/kg analyzed): observed only at the dose of 37.5 mg/kg | Reduction of fibrosis in DIA ([3]; all 3 analyzed doses (1, 10, 37.5 mg/kg), T16): about 40% | Effect on fibrosis in heart ([3]; all 3 doses analyzed, T16, vs vehicle): the effect was not significant
